Here are results for seven molecules from US20040259932A1, “Method and compound to reduce the incidence of diabetes in a subject with chronic heart failure” (priority 2003, published 2004).

Entries after “also recorded” stand apart in the source; their conditions may differ.

The test system of experiment [1] is patients with hypertension. Particulars: cited from earlier work; for patients who developed diabetes: losartan compared with atenolol.
The test system of a further experiment is Elderly. The following applies: candesartan compared with placebo; nonsignificant; cited from earlier work.
For another experiment, the system named is hypertensive population. Particulars: captopril compared with a β-blocker or a diuretic; cited from earlier work.
The conditions of experiment [2]: compared with metoprolol; cited from earlier work.
The subject of experiment [3] is patients with left ventricular dysfunction. Description: Retrospective analysis of Montreal Heart Institute patients of the SOLVD trials: new-onset diabetes (FPG≧126 mg/dL at 2 visits). The class given is in vivo, human. From the text:
The patients from the Montreal Heart Institute who were randomized in the SOLVD trials were included in this study. SOLVD was a multicenter, double-blind, randomized, placebo-controlled trial that assessed the effect of the ACE inhibitor enalapril on survival in patients with left ventricular dysfunction (ejection fraction≦35%). The details of the trial have been described elsewhere.^12 Briefly, the prevention trial included 4228 patients with asymptomatic left ventricular dysfunction, and the treatment trial randomized 2569 patients with congestive heart failure from June 1986 to August 1991. Patients were randomized to enalapril (5 to 20 mg/day) or placebo. Exclusion criteria included age >80 years, unstable angina pectoris, myocardial infarction in the previous month, severe pulmonary disease, renal insufficiency (creatinine level>177 μmol/L [2 mg/dL]), and intolerance to ACE inhibitor or current ACE inhibitor use. Follow-up visits were scheduled 2 and 6 weeks after randomization and every 4 months until the end of the study, for a mean follow-up of 3.4 and 3.1 years for the treatment and prevention trials, respectively.
Baseline characteristics, past medical history, and medication profiles at the time of enrolment into the SOLVD trials were obtained from the SOLVD databases. Fasting plasma glucose (FPG) was not collected for research purposes in the SOLVD trials. However, follow-up of patients in SOLVD involved regular blood samples, including FPG, at almost every research visit. Accordingly, the medical file of each patient was reviewed, and FPG results were collected. Chart reviewers were blinded to treatment allocation.
A diagnosis of new onset diabetes during the follow-up period was defined according to the American Diabetes Association criteria^13 as a FPG≧126 mg/dL (7.0 mmol/L) at 2 different visits. For the purpose of the present study, the visits in which FPG≧126 occurred during infection, trauma, or acute myocardial infarction were not included.
Participants with diabetes at baseline (history of diabetes or FPG≧126 mg/dL at screening visit) were excluded. The study population was further divided among patients with impaired FPG at baseline (110 mg/dL[6.1 mmol/L]≦FPG<126mg/dL [7.0 mmol/L]) and those with normal FPG at baseline (FPG<110 mg/dL).
The baseline characteristic of the 2 groups were compared using Student's t test for continuous variables and the X^2 test for categorical variables. Incidence of diabetes in the 2 groups was compared with the X^2 test. Time to occurrence of diabetes during the follow-up was analyzed with Kaplan-Meier curves and compared with the log-rank test. To analyze the effect of the treatment (enalapril) on development of diabetes, a Cox regression analysis was used to take into account the effect of potential confounding baseline variables (age, sex, current smoking, history of hypertension, and weight) and time-dependent variables (systolic blood pressure; diastolic blood pressure; and use of β-blockers, diuretics, calcium-channel blockers, antiplatelet agents, or antiarrhythmics). Cox proportional-hazard models were performed for each variable, with treatment (enalapril) forced in all models. Variables with a P≦0.2 were included in a multivariate Cox proportional hazard model. […] Subgroup analyses were conducted with the X^2 test. In the particular subgroup of patients with impaired FPG at baseline, Kaplan-Meier curves were performed. Preliminary assumptions were verified before all analyses. P<0.05 was considered significant. All analyses were performed using SAS version 8.2 (SAS Institute, Inc).

Another experiment concerns hypertensive rats. The following applies: cited from earlier work.
Experiment [4] has as its system obese, hypertensive, and dyslipidemic patients. The following applies: given for 12 weeks; cited from earlier work.
The test system of experiment [5] is high-risk patients with no evidence of left ventricular dysfunction. The following applies: cited from earlier work.

As to `CC(C)NCC(O)COc1ccc(CC(N)=O)cc1` (stereo not drawn) [atenolol], the “patients who developed diabetes” value in experiment [1] was 8%.

In the case of `CCOc1nc2cccc(C(=O)O)c2n1Cc1ccc(-c2ccccc2-c2nnn[nH]2)cc1` [candesartan], the “relative reduction in the incidence of diabetes” value in the experiment on Elderly is given as 20%.

Turning to `C[C@H](CS)C(=O)N1CCC[C@H]1C(=O)O` [captopril], the “relative risk of developing diabetes (RR)” value with hypertensive population is recorded as 0.86.

For the molecule `COc1ccccc1OCCNCC(O)COc1cccc2[nH]c3ccccc3c12` (stereo not drawn) [carvedilol], in experiment [2], the “effect on insulin sensitivity” value is given as “favorable effect on insulin sensitivity”.

As for `CCOC(=O)[C@H](CCc1ccccc1)N[C@@H](C)C(=O)N1CCC[C@H]1C(=O)O` [enalapril], the “probability of remaining free from diabetes during follow-up” value in experiment [3] (Kaplan-Meier, enalapril vs placebo, P<0.0001, FIG. 1) is given as “significantly higher”. Besides, the “New cases of diabetes, %” value was found to be 6.0% in experiment [3] (Prevention arm of the trial (n = 198)); 5.7% in experiment [3] (Treatment arm of the trial (n = 93)); 3.3% in experiment [3] (impaired FPG at baseline, IFG (n = 55)); 6.6% in experiment [3] (normal FPG at baseline, NFG (n = 236)); 5.9% in experiment [3] (total population (n = 291), enalapril 5 to 20 mg/day, mean follow-up 2.9 years). Moreover, the “Absolute Risk Reduction” value amounted to 13.4% in experiment [3] (Prevention arm of the trial (n = 198), enalapril vs placebo); 24.3% in experiment [3] (Treatment arm of the trial (n = 93), enalapril vs placebo); 45% in experiment [3] (impaired FPG at baseline, IFG (n = 55), enalapril vs placebo); 44.7% in experiment [3] (impaired FPG at baseline, IFG (n = 55), enalapril vs placebo, listed as Enalapril); 10.7% in experiment [3] (normal FPG at baseline, NFG (n = 236), enalapril vs placebo); 16.5% in experiment [3] (total population (n = 291), enalapril vs placebo). Besides, the “relative risk [RR] of new-onset diabetes” value in experiment [3] (enalapril vs placebo, total population) was found to be 0.26. Also, the “Hazard Ratio for development of diabetes” value in experiment [3] (multivariate analysis, Cox regression model, 95% confidence intervals 0.10 to 0.46) is reported as 0.22. Besides, the “risk of developing diabetes (in words)” value in experiment [3] (patients with left ventricular systolic dysfunction) was “markedly reduced the risk of developing diabetes; also recorded: markedly reduces the risk of developing diabetes mellitus”. In addition, the “number of patients to treat to prevent one new case of diabetes” value in experiment [3] (treated for 2.9 years) worked out at 6 patients. The insulin sensitivity entry (in the experiment with hypertensive rats; in experiment [4]) was “improved insulin sensitivity” each time.

Regarding `CCCCc1nc(Cl)c(CO)n1Cc1ccc(-c2ccccc2-c2nn[nH]n2)cc1` [losartan], the “patients who developed diabetes” value in experiment [1] is 6%. Moreover, the “RR of developing diabetes” value in experiment [1] (losartan vs atenolol) is recorded as 0.75.

With `CCOC(=O)[C@H](CCc1ccccc1)N[C@@H](C)C(=O)N1[C@H](C(=O)O)C[C@@H]2CCC[C@@H]21` [ramipril], the “RR of developing diabetes” value in experiment [5] (ramipril vs placebo) is 0.66. Besides, in experiment [5] (treatment period of 4.5 years), the incidence of diabetes is given as 3.6%. Also, in experiment [5] (treatment period of 4.5 years, ramipril vs placebo), the “reduction of the relative risk of developing diabetes” value was 34%.
